Measured values taken from patent US9012420B2, “Aptamer for chymase, and use thereof” (Ribomic Inc., priority 2009, dated 2015).
Oligonucleotides are written 5' to 3', each unit as a sugar letter and its base; * is a phosphorothioate linkage, no mark a phosphodiester; rarer units and linkages stand in square brackets, end groups in braces. Plain capitals give the bases only. r = 2'-OH (RNA); f = 2'-fluoro

T1: LTBP-1 degradation by chymase (Homo sapiens, UniProt P23946)
T1 sequence (P23946 22-247): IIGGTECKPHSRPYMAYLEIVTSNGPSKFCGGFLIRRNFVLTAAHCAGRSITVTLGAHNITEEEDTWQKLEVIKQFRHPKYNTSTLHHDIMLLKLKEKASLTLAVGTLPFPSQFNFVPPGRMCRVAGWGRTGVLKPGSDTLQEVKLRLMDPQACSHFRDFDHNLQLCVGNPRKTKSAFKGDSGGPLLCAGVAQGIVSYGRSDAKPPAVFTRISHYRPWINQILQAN

T2: chymase (Homo sapiens, UniProt P23946)
T2 sequence (P23946 22-247): T1 sequence (P23946 22-247)

B1: 4 (nucleic acid)
chain: rGrGrGrAfCrGrGfUrArGrGrArAfUfUfCrGfUfCfCrAfUfUfCfUrAfCrArGrAfUrArGrArGrAfUrArArArGfUrArGrArAfUfUfUrArAfCrArArArAfCrAfUrArGrArArGrArGfCrGrGfCfCrGfC
modifications: aptamer
B2: 13 (nucleic acid)
chain: rGrGrGrAfCrGrGfUrArGrGrArAfUfUfCfCrGfCrArAfCfCrAfUfCfCfCrGfUrArAfCfUrAfUrGrGfUfUrArGrAfUrArGrArGfUfUrArArArArAfCfCrAfUrArGrArArGrArGfCrGrGfCfCrGfC
modifications: aptamer
B3: 14 (nucleic acid)
chain: rGrGrGrAfCrGrGfUrArGrGrArAfUfUfCfUfCrGfUfUfCfCfUrGrAfCrArGfCrAfUfUfUrGrArGrAfUrArGrAfUfUfUrArArAfCrArArAfCrGfCrAfCrAfUrArGrArArGrArGfCrGrGfCfCrGfC
modifications: aptamer

Assays:
[1] = target: T1, LTBP-1 degradation by chymase; assay: LTBP-1 degradation inhibitory activity, NHLF culture supernatant, Western blotting; type: biochemical; set-up: key: +: detection of a band with the same level of density as an LTBP-1 band in the control; −: absence of detection of LTBP-1 band as clear as that of the negative control; conditions: final nucleic acid concentration 5 μM, chymase 10 ng/mL (0.33 nM), 37° C. 1 hr; visual determination of LTBP-1 band
Description: A third method of evaluation employs a native substrate contained in a cell culture supernatant. Here, degradation of chymase substrate LTBP-1 is detected by Western blotting. NHLF cells (manufactured by Cambrex Bio Science) under freezing are rapidly thawed in a 37° C. water bath, and then suspended in a medium (10% FBS/F-12). After centrifugation at 1200 rpm for 5 minutes, the resulting supernatant is removed, and the cells are re-suspended in the medium. Total volume of 10 mL medium is added to the centrifuged cells, and the cell suspension is transferred to a cell culture dish and cultured at 37° C. in the presence of 5% CO2. The cells are observed morphology and proliferation status under a microscope. When the cells become confluent, the medium is replaced with a serum-free medium (0.2% BSA/F-12). Two days after replacement of the medium, the culture supernatant is collected, dispensed, and stored under freezing at −30° C.
After 40 μL of the NHLF culture supernatant, freshly thawed before use, is dispensed to a tube, 5 μL of the nucleic acid solution diluted with solution C is added thereof. For positive control, chymostatin is diluted with solution C, and this dilution is added in the same manner. For negative control, solution C alone is added. Next, 5 μL of a 100 ng/mL dilution of chymase in solution E (solution C+0.1% BSA, 0.05% sodium azide) is added. For control, a chymase-free tube is prepared. After stirring, the sample is incubated at 37° C. for 1 hour, and mixed with an equal volume of lysis buffer for electrophoresis to terminate the reaction. LTBP-1 in the sample is detected by the procedure of Western blotting described below.
The sample mixed in the lysis buffer is boiled for 3 minutes, and 10 μL of the sample is subjected to electrophoresis on 5-20% acrylamide gel. After completion of the electrophoresis, the sample is transferred onto a nitrocellulose filter, after which the filter is blocked with 5% skimmed milk, 50 mM Tris-HCl (pH 8.0), and 0.05% sodium azide. The filter is reacted with a 2 μg/mL dilution of anti-LTBP-1 monoclonal antibody in 2% BSA, PBS, and 0.05% sodium azide at room temperature overnight. […]
As determined according to LTBP-1 band density and position (molecular weight), the band from the chymase-free well serves for positive control (+), and the band from the negative control well serves for negative control (−). […]
Chymase is deeply involved in the activation of TGF-β, which is one of the important factors causing fibrosis. […] Whether the nucleic acid of the present invention has an inhibitory activity against LTBP-1 degradation by chymase was assessed by the method shown below. […]

chymase = target: T2, chymase; assay: Surface plasmon resonance (Biacore T100), aptamer immobilized on SA chip, chymase injected as analyte; type: binding; set-up: key: ++: a sequence that binds to chymase significantly more strongly than the negative control 40N; +: a sequence that binds to chymase equivalently compared with the negative control 40N; conditions: Table 1; about 1000 RU nucleic acid immobilized, chymase 0.2 μM analyte, running buffer solution A; compared with 40N
In short: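 Aptamer captured on streptavidin SA chip via 5′-biotin 16-nt poly dT (~1500 RU), and 20 μL of 0.2 μM chymase injected as analyte. Running buffer Solution A for SEQ ID NO: 4-20 and 22-34, Solution C for SEQ ID NO: 38-48. Random 30- or 40-nt RNA served as negative control.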

Molecule | inhibitory activity on LTBP-1 degradation [1] | Binding activity as determined using Biacore (chymase)
GGGU(F)U(F)GAAGAU(F)AU(F)U(F)AAAGAAC(F)C(F)C(F) (GGGUUGAAGAUAUUAAAGAACCC; 2'-fluoro at CU, RNA at AG, backbone not given here) [SEQ ID NO: 58] | − | 
56 (GGGUUAGAUAGAGUUAAAAACCC; 2'-fluoro at CU, RNA at AG, backbone not given here) [compound 56] | + | 
CC(C)C[C@H](NC(=O)[C@@H](NC(=O)N[C@@H](Cc1ccccc1)C(=O)O)[C@@H]1CCN=C(N)N1)C(=O)N[C@H](C=O)Cc1ccccc1 [chymostatin, reference compound] | + | 
58 (GGGUUGAAGAUAUUAAAGAACCC; 2'-fluoro at CU, RNA at AG, backbone not given here) [compound 58] | − | 
B1 |  | ++
B2 |  | ++
B3 |  | ++
